According to ChEMBL document CHEMBL4325930, “Hybrid Inhibitors of Malarial Dihydrofolate Reductase with Dual Binding Modes That Can Forestall Resistance” (ACS Med Chem Lett, 2018):
In brackets after ≈: the same amount, converted by molar mass.

What was measured:
[1] = Inhibition of Plasmodium falciparum TM4/8.2 wild type DHFR NCSI haplotype
Plasmodium falciparum [2] = assay: Antiplasmodial activity against Plasmodium falciparum CSL-2 harboring DHFR NRNL haplotype C59R/S108N/I164L triple mutant; type: functional, organism-based
Plasmodium falciparum [3] = assay: Antiplasmodial activity against Plasmodium falciparum V1/S harboring DHFR IRNL haplotype N51I/C59R/S108N/I164L quadruple mutant; type: functional, organism-based
Vero = assay: Cytotoxicity against African green monkey Vero cells; type: cell-based; settings: chlorocebus sabaeus
Dihydrofolate reductase = target: T1, Dihydrofolate reductase (Homo sapiens, UniProt P00374)
T1 sequence (P00374 whole entry): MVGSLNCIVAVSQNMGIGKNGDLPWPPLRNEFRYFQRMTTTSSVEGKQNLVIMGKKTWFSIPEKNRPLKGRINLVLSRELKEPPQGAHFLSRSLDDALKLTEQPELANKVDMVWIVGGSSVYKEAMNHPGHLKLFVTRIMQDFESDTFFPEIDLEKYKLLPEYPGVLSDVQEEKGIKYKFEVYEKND

Plasmodium falciparum [4] = assay: microbe, parasite or virus in culture; settings: TM4/8.2
Plasmodium falciparum [5] = assay: microbe, parasite or virus in culture; settings: K1CB1
Plasmodium falciparum [6] = assay: microbe, parasite or virus in culture; settings: W2
[7] = Solubility of the compound; type: physicochemical

solubility [7] | SMILES | Ki [1] | IC50 (Plasmodium falciparum [2]) | IC50 (Plasmodium falciparum [3]) | Activity (Vero) | Ki (Dihydrofolate reductase) | IC50 (Plasmodium falciparum [4]) | IC50 (Plasmodium falciparum [5]) | IC50 (Plasmodium falciparum [6])
 | CCc1nc(N)nc(N)c1-c1ccc(Cl)cc1 [PYRIMETHAMINE] | 0.6 nM | 42 µM | > 100 µM |  |  |  |  | 
 | CCc1nc(N)nc(N)c1-c1cccc(Cl)c1 |  | 2.53 µM | 9.1 µM | 7 µM | 1.6 nM | 420 nM | 1310 nM | 3.94 µM
 | Cc1nc(N)nc(N)c1OCCCOc1cc(Cl)c(Cl)cc1Cl |  |  | 3.5 µM |  |  | 230 nM |  | 
1 µM (≈ 0.425 µg/mL) | CCc1nc(N)nc(N)c1OCCCOc1ccc(-c2c(N)nc(N)nc2CC)cc1 |  |  |  |  |  |  |  | 
